# Target: ATP-dependent translocase ABCB1 (Homo sapiens, UniProt P08183)
# Test: TP_TRANSPORTER: efflux in MDR1-expressing BeWo cells
# Format: functional, cell-based
# Sequence of ATP-dependent translocase ABCB1 (P08183 whole entry): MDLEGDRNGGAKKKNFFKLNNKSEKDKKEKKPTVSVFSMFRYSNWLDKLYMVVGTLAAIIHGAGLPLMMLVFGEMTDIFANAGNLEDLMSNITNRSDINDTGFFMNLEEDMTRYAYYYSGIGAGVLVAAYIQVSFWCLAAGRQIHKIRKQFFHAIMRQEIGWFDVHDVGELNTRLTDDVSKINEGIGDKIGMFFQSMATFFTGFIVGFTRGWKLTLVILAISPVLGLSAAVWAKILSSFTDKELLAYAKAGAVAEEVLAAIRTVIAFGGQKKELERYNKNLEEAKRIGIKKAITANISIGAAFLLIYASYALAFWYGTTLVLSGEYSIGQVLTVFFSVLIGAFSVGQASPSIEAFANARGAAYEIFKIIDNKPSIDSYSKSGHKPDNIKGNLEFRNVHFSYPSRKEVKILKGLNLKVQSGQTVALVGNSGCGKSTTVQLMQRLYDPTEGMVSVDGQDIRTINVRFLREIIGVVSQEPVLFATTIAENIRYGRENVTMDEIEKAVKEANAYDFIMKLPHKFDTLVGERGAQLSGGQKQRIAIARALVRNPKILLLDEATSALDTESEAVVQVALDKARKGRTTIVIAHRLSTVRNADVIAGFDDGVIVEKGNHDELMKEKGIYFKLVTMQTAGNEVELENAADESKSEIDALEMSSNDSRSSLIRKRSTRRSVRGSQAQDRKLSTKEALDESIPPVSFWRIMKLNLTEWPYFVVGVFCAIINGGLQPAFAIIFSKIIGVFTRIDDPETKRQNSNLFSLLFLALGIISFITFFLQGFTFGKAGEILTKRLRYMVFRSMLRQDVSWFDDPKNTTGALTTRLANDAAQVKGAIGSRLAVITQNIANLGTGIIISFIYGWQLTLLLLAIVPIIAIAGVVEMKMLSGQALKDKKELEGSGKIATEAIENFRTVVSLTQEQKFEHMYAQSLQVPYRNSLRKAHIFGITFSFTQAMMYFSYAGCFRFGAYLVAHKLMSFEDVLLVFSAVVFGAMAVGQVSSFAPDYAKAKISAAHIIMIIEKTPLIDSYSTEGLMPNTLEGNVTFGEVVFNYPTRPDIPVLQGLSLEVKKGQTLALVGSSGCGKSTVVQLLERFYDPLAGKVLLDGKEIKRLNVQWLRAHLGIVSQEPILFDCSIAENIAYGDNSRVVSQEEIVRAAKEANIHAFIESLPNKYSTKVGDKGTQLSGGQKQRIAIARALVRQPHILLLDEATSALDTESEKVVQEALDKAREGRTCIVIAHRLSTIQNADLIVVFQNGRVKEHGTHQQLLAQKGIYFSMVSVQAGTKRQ
smiles,measurement,value
CC[C@]1(O)C[C@@H]2CN(CCc3c([nH]c4ccccc34)[C@@](C(=O)OC)(c3cc4c(cc3OC)N(C)[C@H]3[C@@](O)(C(=O)OC)[C@H](OC(C)=O)[C@]5(CC)C=CCN6CC[C@]43[C@@H]65)C2)C1 [VINBLASTINE],Activity,substrate [+]

# Reference: ChEMBL document CHEMBL2073803, “Role of MDR1 and MRP1 in trophoblast cells, elucidated using retroviral gene transfer” (Am J Physiol Cell Physiol, 2003)
